Reference: patent EP4238973A1, “SUBSTITUTED 1,2,4-THIADIAZOLYL ISONICOTINAMIDES, SALTS OR N-OXIDES THEREOF AND THEIR USE AS HERBICIDALLY ACTIVE SUBSTANCES” (Bayer AG, priority 2022, dated 2023)

Legend:
Type in all cases: in vivo
Amaranthus retroflexus [1] = assay: Herbicidal pre-emergence action; details: 1280 g/ha, visual grading after ca. 3 weeks vs untreated controls
Source text: (§1) Seeds of mono- and dicotyledonous weed plants were sown in plastic pots (double sowings with one species of mono- and one species of dicotyledonous weed plants per pot), in sandy loam, and covered with soil. The compounds according to the invention, formulated in the form of wettable powders (WP) or as emulsifiable concentrates (EC), were applied to the surface of the covering soil as an aqueous suspension or as an emulsion, with the addition of 0.5% of an additive, at an application rate of 600 litres of water per hectare (converted). Following treatment, the pots were placed in a greenhouse and kept under optimum growth conditions for the test plants. The visual grading of the damage to the test plants is carried out after ca. 3 weeks in comparison to untreated controls (herbicidal effect in percent (%): 100% effect = plants have died, 0% effect = as control plants). Seeds of mono- and dicotyledonous weed plants were sown in plastic pots (double sowings with one species of mono- and one species of dicotyledonous weed plants per pot), in sandy loam, and covered with soil. The compounds according to the invention, formulated in the form of wettable powders (WP) or as emulsifiable concentrates (EC), were applied to the surface of the covering soil as an aqueous suspension or as an emulsion, with the addition of 0.5% of an additive, at an application rate of 600 litres of water per hectare (converted). Following treatment, the pots were placed in a greenhouse and kept under optimum growth conditions for the test plants. The visual grading of the damage to the test plants is carried out after ca. 3 weeks in comparison to untreated controls (herbicidal effect in percent (%): 100% effect = plants have died, 0% effect = as control plants).

Digitaria sanguinalis [2] = assay: Herbicidal pre-emergence action; details: 1280 g/ha, visual grading after ca. 3 weeks vs untreated controls
Source text: as §1

Kochia scoparia [3] = assay: Herbicidal pre-emergence action; details: 1280 g/ha, visual grading after ca. 3 weeks vs untreated controls
Source text: as §1

Lolium rigidum [4] = assay: Herbicidal pre-emergence action; details: visual grading after ca. 3 weeks vs untreated controls
Source text: as §1

Matricaria inodora [5] = assay: Herbicidal pre-emergence action; details: 1280 g/ha, visual grading after ca. 3 weeks vs untreated controls
Source text: as §1

Poa annua [6] = assay: Herbicidal pre-emergence action; details: visual grading after ca. 3 weeks vs untreated controls
Source text: as §1

Setaria viridis [7] = assay: Herbicidal pre-emergence action; details: 1280 g/ha, visual grading after ca. 3 weeks vs untreated controls
Source text: as §1

Stellaria media [8] = assay: Herbicidal pre-emergence action; details: visual grading after ca. 3 weeks vs untreated controls
Source text: as §1

Veronica persica [9] = assay: Herbicidal pre-emergence action; details: 1280 g/ha, visual grading after ca. 3 weeks vs untreated controls
Source text: as §1

Alopecurus myosuroides [10] = assay: Herbicidal post-emergence action; details: 1280 g/ha, visual assessment after ca. 3 weeks vs untreated controls
Source text: (§2) Seeds of mono- and dicotyledonous weed plants were sown in plastic pots (double sowings with one species of mono- and one species of dicotyledonous weed plants per pot), in sandy loam, covered with soil and grown under controlled growth conditions. 2 to 3 weeks after sowing, the test plants were sprayed in the single-leaf stage. The compounds according to the invention, formulated in the form of wettable powders (WP) or as emulsifiable concentrates (EC), were sprayed onto the green plant parts as an aqueous suspension or as an emulsion, with the addition of 0.5% of an additive, at an application rate of 600 litres of water per hectare (converted). The test plants were placed in the greenhouse for ca. 3 weeks under optimum growth conditions, and then the effect of the preparations is assessed visually in comparison with untreated controls (herbicidal effect in percent (%): 100% effect = plants have died, 0% effect = as control plants).
as §2, with “(EC), are” for “(EC), were”, “controls (herbicidaleffectinpercent(%):100%effect=plantshavedied,0%effect=ascontrolplants). [formula]” for “controls (herbicidal effect in percent (%): 100% effect = plants have died, 0% effect = as control plants).”

Amaranthus retroflexus [11] = assay: Herbicidal post-emergence action; details: visual assessment after ca. 3 weeks vs untreated controls
Source text: as §2
as §2, with “(EC), are” for “(EC), were”, “controls (herbicidaleffectinpercent(%):100%effect=plantshavedied,0%effect=ascontrolplants). [formula]” for “controls (herbicidal effect in percent (%): 100% effect = plants have died, 0% effect = as control plants).”

Digitaria sanguinalis [12] = assay: Herbicidal post-emergence action; details: visual assessment after ca. 3 weeks vs untreated controls
Source text: as §2
as §2, with “(EC), are” for “(EC), were”, “controls (herbicidaleffectinpercent(%):100%effect=plantshavedied,0%effect=ascontrolplants). [formula]” for “controls (herbicidal effect in percent (%): 100% effect = plants have died, 0% effect = as control plants).”

Kochia scoparia [13] = assay: Herbicidal post-emergence action; details: visual assessment after ca. 3 weeks vs untreated controls
Source text: as §2
as §2, with “(EC), are” for “(EC), were”, “controls (herbicidaleffectinpercent(%):100%effect=plantshavedied,0%effect=ascontrolplants). [formula]” for “controls (herbicidal effect in percent (%): 100% effect = plants have died, 0% effect = as control plants).”

Lolium rigidum [14] = assay: Herbicidal post-emergence action; details: visual assessment after ca. 3 weeks vs untreated controls
Source text: as §2
as §2, with “(EC), are” for “(EC), were”, “controls (herbicidaleffectinpercent(%):100%effect=plantshavedied,0%effect=ascontrolplants). [formula]” for “controls (herbicidal effect in percent (%): 100% effect = plants have died, 0% effect = as control plants).”

Matricaria inodora [15] = assay: Herbicidal post-emergence action; details: visual assessment after ca. 3 weeks vs untreated controls
Source text: as §2
as §2, with “(EC), are” for “(EC), were”, “controls (herbicidaleffectinpercent(%):100%effect=plantshavedied,0%effect=ascontrolplants). [formula]” for “controls (herbicidal effect in percent (%): 100% effect = plants have died, 0% effect = as control plants).”

Poa annua [16] = assay: Herbicidal post-emergence action; details: visual assessment after ca. 3 weeks vs untreated controls
Source text: as §2
as §2, with “(EC), are” for “(EC), were”, “controls (herbicidaleffectinpercent(%):100%effect=plantshavedied,0%effect=ascontrolplants). [formula]” for “controls (herbicidal effect in percent (%): 100% effect = plants have died, 0% effect = as control plants).”

Setaria viridis [17] = assay: Herbicidal post-emergence action; details: visual assessment after ca. 3 weeks vs untreated controls
Source text: as §2
as §2, with “(EC), are” for “(EC), were”, “controls (herbicidaleffectinpercent(%):100%effect=plantshavedied,0%effect=ascontrolplants). [formula]” for “controls (herbicidal effect in percent (%): 100% effect = plants have died, 0% effect = as control plants).”

Stellaria media [18] = assay: Herbicidal post-emergence action; details: visual assessment after ca. 3 weeks vs untreated controls
Source text: as §2
as §2, with “(EC), are” for “(EC), were”, “controls (herbicidaleffectinpercent(%):100%effect=plantshavedied,0%effect=ascontrolplants). [formula]” for “controls (herbicidal effect in percent (%): 100% effect = plants have died, 0% effect = as control plants).”

Veronica persica [19] = assay: Herbicidal post-emergence action; details: visual assessment after ca. 3 weeks vs untreated controls
Source text: as §2
as §2, with “(EC), are” for “(EC), were”, “controls (herbicidaleffectinpercent(%):100%effect=plantshavedied,0%effect=ascontrolplants). [formula]” for “controls (herbicidal effect in percent (%): 100% effect = plants have died, 0% effect = as control plants).”

Abutilon theophrasti [20] = assay: Herbicidal post-emergence action; details: 1280 g/ha, visual assessment after ca. 3 weeks vs untreated controls
Source text: as §2
as §2, with “(EC), are” for “(EC), were”, “controls (herbicidaleffectinpercent(%):100%effect=plantshavedied,0%effect=ascontrolplants). [formula]” for “controls (herbicidal effect in percent (%): 100% effect = plants have died, 0% effect = as control plants).”

Alopecurus myosuroides [21] = assay: Herbicidal pre-emergence action; details: 1280 g/ha, visual grading after ca. 3 weeks vs untreated controls
Source text: as §1

Abutilon theophrasti [22] = assay: Herbicidal pre-emergence action; details: 1280 g/ha, visual grading after ca. 3 weeks vs untreated controls
Source text: as §1

Echinochloa crus-galli = assay: Herbicidal pre-emergence action; details: 1280 g/ha, visual grading after ca. 3 weeks vs untreated controls
Source text: as §1

Structure (SMILES)	herbicidal effect in percent (%), AMARE (Amaranthus retroflexus [1]) [%]	herbicidal effect in percent (%), LOLRI (Lolium rigidum [4]; 1280 g/ha) [%]	herbicidal effect in percent (%), MATIN (Matricaria inodora [5]) [%]	herbicidal effect in percent (%), POAAN (Poa annua [6]; 320 g/ha) [%]	herbicidal effect in percent (%), POAAN (Poa annua [6]; 1280 g/ha) [%]	herbicidal effect in percent (%), STEME (Stellaria media [8]; 1280 g/ha) [%]	herbicidal effect in percent (%), VERPE (Veronica persica [9]) [%]	herbicidal effect in percent (%), ALOMY (Alopecurus myosuroides [10]) [%]	herbicidal effect in percent (%), AMARE (Amaranthus retroflexus [11]; 1280 g/ha) [%]	herbicidal effect in percent (%), DIGSA (Digitaria sanguinalis [12]; 1280 g/ha) [%]	herbicidal effect in percent (%), KCHSC (Kochia scoparia [13]; 1280 g/ha) [%]	herbicidal effect in percent (%), LOLRI (Lolium rigidum [14]; 1280 g/ha) [%]	herbicidal effect in percent (%), MATIN (Matricaria inodora [15]; 1280 g/ha) [%]	herbicidal effect in percent (%), POAAN (Poa annua [16]; 320 g/ha) [%]	herbicidal effect in percent (%), POAAN (Poa annua [16]; 1280 g/ha) [%]	herbicidal effect in percent (%), STEME (Stellaria media [18]; 320 g/ha) [%]	herbicidal effect in percent (%), STEME (Stellaria media [18]; 1280 g/ha) [%]	herbicidal effect in percent (%), VERPE (Veronica persica [19]; 320 g/ha) [%]	herbicidal effect in percent (%), VERPE (Veronica persica [19]; 1280 g/ha) [%]	herbicidal effect in percent (%), MATIN (Matricaria inodora [15]; 320 g/ha) [%]	other results
O=C(Nc1ncns1)c1ccncc1I [Example 1-004]	90	100	90	90	90	90	90	100	100	100	90	100	100	100	100	100	100	100	100	–	herbicidal effect in percent (%), DIGSA (Digitaria sanguinalis [2]): 90%; herbicidal effect in percent (%), KCHSC (Kochia scoparia [3]): 90%; herbicidal effect in percent (%), SETVI (Setaria viridis [7]): 90%; herbicidal effect in percent (%), STEME (Stellaria media [8]; 320 g/ha): 90%; herbicidal effect in percent (%), DIGSA (Digitaria sanguinalis [12]; 320 g/ha): 90%; herbicidal effect in percent (%), SETVI (Setaria viridis [17]; 320 g/ha): 90%; herbicidal effect in percent (%), SETVI (Setaria viridis [17]; 1280 g/ha): 90%
O=C(Nc1ncns1)c1cc(Cl)ncc1OC(F)(F)F [Example 1-012, 2-chloro-N-(1,2,4-thiadiazol-5-yl)-5-(trifluoromethoxy)pyridine-4-carboxamide]	–	100	–	–	90	–	–	–	100	–	90	–	100	–	90	–	100	–	100	–	herbicidal effect in percent (%), ABUTH (Abutilon theophrasti [20]): 90%; herbicidal effect in percent (%), SETVI (Setaria viridis [17]; 1280 g/ha): 90%
O=C(Nc1nc(Cl)ns1)c1ccncc1I [Example 1-023, N-(3-chloro-1,2,4-thiadiazol-5-yl)-3-iodo-pyridine-4-carboxamide]	100	90	100	–	–	100	–	–	90	–	90	–	100	–	90	–	90	–	–	–	–
O=C(Nc1ncns1)c1cc(Cl)ncc1Cl [Example I-011]	90	90	100	–	100	90	–	100	100	100	100	90	100	–	90	90	100	90	100	100	herbicidal effect in percent (%), ALOMY (Alopecurus myosuroides [21]): 90%; herbicidal effect in percent (%), ABUTH (Abutilon theophrasti [20]): 90%; herbicidal effect in percent (%), AMARE (Amaranthus retroflexus [11]; 320 g/ha): 90%; herbicidal effect in percent (%), DIGSA (Digitaria sanguinalis [12]; 320 g/ha): 90%; herbicidal effect in percent (%), KCHSC (Kochia scoparia [13]; 320 g/ha): 90%
O=C(Nc1ncns1)c1cc(Cl)ncc1C(F)(F)F [Example I-013, 2-chloro-N-(1,2,4-thiadiazol-5-yl)-5-(trifluoromethyl)pyridine-4-carboxamide]	100	100	100	–	90	100	100	90	100	–	100	100	100	100	100	100	100	100	100	100	herbicidal effect in percent (%), ABUTH (Abutilon theophrasti [22]): 90%; herbicidal effect in percent (%), ALOMY (Alopecurus myosuroides [21]): 90%; herbicidal effect in percent (%), ECHCG (Echinochloa crus-galli): 100%; herbicidal effect in percent (%), KCHSC (Kochia scoparia [3]): 100%; herbicidal effect in percent (%), LOLRI (Lolium rigidum [4]; 320 g/ha): 90%; herbicidal effect in percent (%), KCHSC (Kochia scoparia [13]; 320 g/ha): 100%; herbicidal effect in percent (%), LOLRI (Lolium rigidum [14]; 320 g/ha): 90%
O=C(Nc1ncns1)c1c(Br)cncc1Br [Example I-015]	–	90	100	100	100	90	100	100	90	100	100	100	100	100	100	100	100	100	100	100	herbicidal effect in percent (%), ALOMY (Alopecurus myosuroides [21]): 100%; herbicidal effect in percent (%), DIGSA (Digitaria sanguinalis [2]): 100%; herbicidal effect in percent (%), ABUTH (Abutilon theophrasti [20]): 100%
O=C(Nc1ncns1)c1cc(F)ncc1Br [Example I-027, 5-bromo-2-fluoro-N-(1,2,4-thiadiazol-5-yl)pyridine-4-carboxamide]	–	100	90	90	90	100	–	90	90	–	90	–	90	–	90	–	90	–	90	90	herbicidal effect in percent (%), LOLRI (Lolium rigidum [4]; 320 g/ha): 90%; herbicidal effect in percent (%), SETVI (Setaria viridis [17]; 1280 g/ha): 90%
